In patent US20120230951A1 (priority 2011, published 2012):

The compounds below were run on GT-1a pRLuc H771b 75 S/I subgenomic replicon cell line (assay: HCV GT-1a replicon luciferase reporter assay). Details: Hepatitis C virus, GT1A, 72 h, read-out: GT-1a (IC50) (nM).
Type: cell-based
Text: Determination of compounds HCV GT1b inhibitory replicon activity using the replicon luciferase reporter assay
The 2209-23 cell line was developed at Roche by stable transfection of the hepatoma cell line Huh-7 with a GT-1b Con1 subgenomic bicistronic replicon as previously described. Subgenomic replicon cell line was established in cured Huh7 cells, obtained from R. Bartenschlager (J. Virol. 2003 March; 77 (5):3007-19) The GT-1a H77 subgenomic replicon vector pRLuc H771b 75 S/I, was created by replacing the non structural region of the GT-1b Con1 subgenomic replicon by the one of the H77 strain, except for the first 75 amino acids of the NS3 protein that are from GT-1b Con1 strain. (J. Virol. 2001 77:5352-59) The GT-1a pRLuc H771b 75 S/I subgenomic replicon cell line was established in cured Huh7 cells, obtained from R. Bartenschlager. (J. Virol. 2003 March; 77 (5):3007-19)
All the subgenomic replicon cell lines were cultured in Dulbecco's Modified Eagle Medium (DMEM-Glutamax™-I; Invitrogen Cat #10569-010). The medium was supplemented with 10% Fetal Bovine Serum (Invitrogen Cat #10082-147), 1% penicillin/streptomycin (Mediatech Cat #30-002-CI) and 500 μg/ml of G418 (Mediatech Cat #30-234-CI). Cells were maintained at 37° C. in a humidified 5% CO2 atmosphere.
2209-23 cells were plated at a cell density of 5000 cells per well in 96 well plates (Becton Dickinson, Cat #35 3296). Cells were plated in 90 μl of Dulbecco's Modified Eagle Medium (DMEM-Glutamax™-I), (Invitrogen Cat #10569-010) medium was supplemented with 5% Fetal Bovine Serum (Invitrogen Cat #10082-147), 1% penicillin/streptomycin (Mediatech Cat #30-002-CI). The pRluc H771b 75 S/I cells were plated in 96-well plate at 3000 cells/well in DMEM-Glutamax™-I containing 5% FBS and 1% penicillin/streptomycin in 90 μl final volume. Cells were allowed to equilibrate for 24 hours at 37° C. and 5% CO2 at which time compounds were added. Compounds (or medium as a control) were added 24 hours post-plating in 3 fold dilutions at a final DMSO concentration of 1% in 10 ul volume. Renilla luciferase reporter signal was read 72 hours after addition of compounds using the Renilla Luciferase Assay System (Promega, cat #E2820). EC50 values were defined as the compound concentration at which a 50% reduction in the levels of renilla luciferase reporter was observed as compared to control samples in the absence of compound and was determined by non-linear fitting of compound dose-response data. The EC50 was approximated if maximum percentage inhibition was less than 90% and more than 70%.

| SMILES | IC50 |
| --- | --- |
| COC(=O)NC(C(=O)N1CCCC1c1ncc(-c2ccc(-c3ccc(-c4cnc([C@@H]5Cc6cc(C#N)cc7c6N5C(=O)[C@@H](NC(=O)OC)CC7)[nH]4)cc3)cc2)[nH]1)C(C)C (stereo in doubt) [Compound I-26, {(2S,5S)-9-Cyano-2-[5-(4′-{2-[(R)-1-((R)-2-methoxycarbonylamino-3-methyl-butyryl)-pyrrolidin-2-yl]-3H-imidazol-4-yl}-biphenyl-4-yl)-1H-imidazol-2-yl]-4-oxo-1,2,4,5,6,7-hexahydro-azepino[3,2,1-hi]indol-5-yl}-carbamic acid methyl ester] | 7.71 nM |
| COC(=O)N[C@H]1CCc2cccc3c2N(C1=O)[C@H](c1ncc(-c2ccc(-c4ccc(-c5cnc([C@@H]6CCCN6C(=O)[C@@H](NC(=O)OC)[C@@H](C)O)[nH]5)cc4)cc2)[nH]1)C3 (stereo in doubt) [Compound I-50, {(2S,5S)-2-[5-(4-{2-[(S)-1-((S)-3-Hydroxy-2-methoxycarbonylamino-butyl)-pyrolidin-2-yl]-3H-imidazol-4-yl}-biphenyl-4-yl)-1H-imidazol-2-yl]-4-oxo-1,2,4,5,6,7-hexahydro-azepino[3,2,1-hi]indol-5-yl}-carbamic acid methyl ester] | 6.62 nM |
| COC(=O)NC(C(=O)N1CCOC[C@H]1c1ncc(-c2ccc(-c3ccc(-c4cnc([C@@H]5Cc6cccc7c6N5C(=O)[C@@H](NC(=O)OC)CC7)[nH]4)cc3)cc2)[nH]1)c1ccccc1 (stereo in doubt) [Compound I-63, {(2S,5S)-2-[5-(4′-{2-[(R)-4-((S)-2-Methoxycarbonylamino-2-phenyl-acetyl)-morpholin-3-yl]-3H-imidazol-4-yl}-biphenyl-4-yl)-1H-imidazol-2-yl]-4-oxo-1,2,4,5,6,7-hexahydro-azepino[3,2,1-hi]indol-5-yl}-carbamic acid methyl ester] | 7.3 nM |
| COC(=O)N[C@H]1CCc2cccc3c2N(C1=O)[C@H](c1ncc(-c2ccc(-c4ccc(-c5cnc([C@@H]6C[C@H](F)CN6C(=O)[C@@H](NC(=O)OC)C(C)C)[nH]5)cc4)cc2)[nH]1)C3 [Compound I-1, {(2S,5S)-2-[5-(4′-{2-[(2S,4S)-4-Fluoro-1-((S)-2-methoxycarbonylamino-3-methyl-butyryl)-pyrrolidin-2-yl]-3H-imidazol-4-yl}biphenyl-4-yl)-1H-imidazol-2-yl]-4-oxo-1,2,4,5,6,7-hexahydro-azepino[3,2,1-hi]indol-5-yl}-carbamic acid methyl ester] | 6.33 nM |
| COC(=O)N[C@H]1CCc2cccc3c2N(C1=O)[C@H](c1ncc(-c2ccc(-c4ccc(-c5cnc([C@@H]6C[C@@H](F)CN6C(=O)[C@@H](NC(=O)OC)C(C)C)[nH]5)cc4)cc2)[nH]1)C3 [Compound I-2, {(2S,5S)-2-[5-(4′-{2-[(2S,4R)-4-Fluoro-1-((S)-2-methoxycarbonylamino-3-methyl-butyryl)-pyrrolidin-2-yl]-3H-imidazol-4-yl}-biphenyl-4-yl)-1H-imidazol-2-yl]-4-oxo-1,2,4,5,6,7-hexahydro-azepino[3,2,1-hi]indol-5-yl}-carbamic acid methyl ester] | 18.5 nM |
| COC(=O)N[C@H]1CCc2cccc3c2N(C1=O)[C@H](c1ncc(-c2ccc(-c4ccc5nc([C@@H]6CCCN6C(=O)[C@@H](NC(=O)OC)C(C)C)[nH]c5c4)cc2)[nH]1)C3 [Compound I-3, {(2S,5S)-2-[5-(4-{2-[(S)-1-((S)-2-Methoxycarbonylamino-3-methyl-butyryl)-pyrrolidin-2-yl]-3H-benzoimidazol-5-yl}-phenyl)-1H-imidazol-2-yl]-4-oxo-1,2,4,5,6,7-hexahydro-azepino[3,2,1-hi]indol-5-yl}-carbamic acid methyl ester] | 660 nM |
